Reference: ChEMBL document CHEMBL5696442, “Discovery of type II inhibitors of TGFβ-activated kinase 1 (TAK1) and mitogen-activated protein kinase kinase kinase kinase 2 (MAP4K2)” (J Med Chem, 2015)
Activity calls are given as the source filed them. The calls are words filed in the database; no cut-off is given here.

How the values were obtained:
[1] = target: Ribosomal protein S6 kinase alpha-3 (Homo sapiens) (UniProt P51812); assay: Inhibition of RSK2 domain1 ACT labeling site LTDFGLSKESIDHEK in human Huh-7 cell lysate at 1 uM by KiNativ Profiling analysis relative to control; format: subcellular
Ribosomal protein S6 kinase alpha-3 (Homo sapiens), sequence (P51812 whole entry, the tested form may be a part): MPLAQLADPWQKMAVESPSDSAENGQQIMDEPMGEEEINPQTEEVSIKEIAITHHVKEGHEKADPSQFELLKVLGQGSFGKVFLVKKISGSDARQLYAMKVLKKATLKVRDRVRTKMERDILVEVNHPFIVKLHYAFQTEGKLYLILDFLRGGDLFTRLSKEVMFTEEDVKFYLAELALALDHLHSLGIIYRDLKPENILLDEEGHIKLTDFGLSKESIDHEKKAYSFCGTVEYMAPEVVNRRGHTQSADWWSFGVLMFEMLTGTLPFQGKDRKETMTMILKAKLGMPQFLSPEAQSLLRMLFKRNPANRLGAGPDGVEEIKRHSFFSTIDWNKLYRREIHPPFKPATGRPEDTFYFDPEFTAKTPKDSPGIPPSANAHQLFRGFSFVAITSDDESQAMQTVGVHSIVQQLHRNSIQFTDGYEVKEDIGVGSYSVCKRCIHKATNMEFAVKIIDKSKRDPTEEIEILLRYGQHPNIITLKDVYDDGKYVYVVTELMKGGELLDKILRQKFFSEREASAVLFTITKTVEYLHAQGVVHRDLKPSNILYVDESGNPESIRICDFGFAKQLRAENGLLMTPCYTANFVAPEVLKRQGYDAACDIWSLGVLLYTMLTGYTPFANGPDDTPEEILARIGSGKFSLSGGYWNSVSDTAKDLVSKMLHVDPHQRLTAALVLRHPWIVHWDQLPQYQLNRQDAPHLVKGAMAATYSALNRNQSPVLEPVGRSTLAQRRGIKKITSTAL

[2] = target: Ribosomal protein S6 kinase alpha-3 (Homo sapiens) (UniProt P51812); assay: Inhibition of RSK2 domain2 Lys1 labeling site in human Huh-7 cells at 1 uM by KiNativ Profiling analysis relative to control; format: cell-based
[3] = target: Serine/threonine-protein kinase Nek7 (Homo sapiens) (UniProt Q8TDX7); assay: Inhibition of NEK7 Lys2 labeling site harbouring DIKPANVFITATGVVK in human Huh-7 cell lysate at 1 uM by KiNativ Profiling analysis relative to control; format: subcellular
[4] = target: Epidermal growth factor receptor (Homo sapiens) (UniProt P00533); assay: Inhibition of EGFR ACT labeling site harbouring ITDFGLAKLLGAEEK in human A-375 cells at 0.5 uM by KiNativ Profiling analysis relative to control; format: cell-based
Epidermal growth factor receptor (Homo sapiens), sequence (P00533 whole entry): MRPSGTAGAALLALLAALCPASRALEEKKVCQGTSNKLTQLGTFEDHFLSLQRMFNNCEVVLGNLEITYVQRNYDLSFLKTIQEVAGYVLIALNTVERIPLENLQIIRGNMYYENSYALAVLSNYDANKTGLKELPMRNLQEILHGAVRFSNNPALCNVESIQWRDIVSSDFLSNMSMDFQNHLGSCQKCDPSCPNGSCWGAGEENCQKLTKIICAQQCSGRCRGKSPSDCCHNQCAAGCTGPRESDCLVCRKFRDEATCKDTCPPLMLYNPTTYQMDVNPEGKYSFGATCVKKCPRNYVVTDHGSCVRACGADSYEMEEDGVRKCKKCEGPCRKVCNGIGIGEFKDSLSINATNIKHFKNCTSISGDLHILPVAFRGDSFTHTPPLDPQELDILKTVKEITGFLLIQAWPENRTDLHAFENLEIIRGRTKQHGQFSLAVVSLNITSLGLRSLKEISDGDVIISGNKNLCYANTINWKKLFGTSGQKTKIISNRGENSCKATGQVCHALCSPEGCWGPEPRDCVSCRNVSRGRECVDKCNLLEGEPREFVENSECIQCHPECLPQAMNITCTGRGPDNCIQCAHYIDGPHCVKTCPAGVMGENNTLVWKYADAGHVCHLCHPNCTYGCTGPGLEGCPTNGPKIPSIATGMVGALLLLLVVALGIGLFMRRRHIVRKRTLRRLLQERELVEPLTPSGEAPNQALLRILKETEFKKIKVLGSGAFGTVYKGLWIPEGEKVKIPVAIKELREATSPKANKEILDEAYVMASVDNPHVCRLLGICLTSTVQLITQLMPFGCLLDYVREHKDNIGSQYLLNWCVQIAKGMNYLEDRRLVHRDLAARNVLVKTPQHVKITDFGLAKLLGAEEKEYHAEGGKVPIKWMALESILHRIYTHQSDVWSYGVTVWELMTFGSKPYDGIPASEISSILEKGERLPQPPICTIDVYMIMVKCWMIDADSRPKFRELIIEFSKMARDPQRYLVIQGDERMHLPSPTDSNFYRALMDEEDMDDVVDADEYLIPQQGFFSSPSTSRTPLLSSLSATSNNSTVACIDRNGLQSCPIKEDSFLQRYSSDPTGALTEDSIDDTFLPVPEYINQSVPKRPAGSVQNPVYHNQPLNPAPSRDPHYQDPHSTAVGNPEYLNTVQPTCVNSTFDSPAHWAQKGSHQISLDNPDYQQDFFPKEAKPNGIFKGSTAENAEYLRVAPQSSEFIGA

[5] = target: Mitogen-activated protein kinase kinase kinase kinase 1 (Homo sapiens) (UniProt Q92918); assay: Inhibition of HPK1 (unknown origin) at 10 uM by Ambit Kinomescan binding assay relative to control; values are per cent of control
[6] = target: T1, Receptor-interacting serine/threonine-protein kinase 4 (Homo sapiens) (UniProt P57078); assay: Inhibition of RIPK4 (unknown origin) at 10 uM by Ambit Kinomescan binding assay
T1 sequence (whole entry): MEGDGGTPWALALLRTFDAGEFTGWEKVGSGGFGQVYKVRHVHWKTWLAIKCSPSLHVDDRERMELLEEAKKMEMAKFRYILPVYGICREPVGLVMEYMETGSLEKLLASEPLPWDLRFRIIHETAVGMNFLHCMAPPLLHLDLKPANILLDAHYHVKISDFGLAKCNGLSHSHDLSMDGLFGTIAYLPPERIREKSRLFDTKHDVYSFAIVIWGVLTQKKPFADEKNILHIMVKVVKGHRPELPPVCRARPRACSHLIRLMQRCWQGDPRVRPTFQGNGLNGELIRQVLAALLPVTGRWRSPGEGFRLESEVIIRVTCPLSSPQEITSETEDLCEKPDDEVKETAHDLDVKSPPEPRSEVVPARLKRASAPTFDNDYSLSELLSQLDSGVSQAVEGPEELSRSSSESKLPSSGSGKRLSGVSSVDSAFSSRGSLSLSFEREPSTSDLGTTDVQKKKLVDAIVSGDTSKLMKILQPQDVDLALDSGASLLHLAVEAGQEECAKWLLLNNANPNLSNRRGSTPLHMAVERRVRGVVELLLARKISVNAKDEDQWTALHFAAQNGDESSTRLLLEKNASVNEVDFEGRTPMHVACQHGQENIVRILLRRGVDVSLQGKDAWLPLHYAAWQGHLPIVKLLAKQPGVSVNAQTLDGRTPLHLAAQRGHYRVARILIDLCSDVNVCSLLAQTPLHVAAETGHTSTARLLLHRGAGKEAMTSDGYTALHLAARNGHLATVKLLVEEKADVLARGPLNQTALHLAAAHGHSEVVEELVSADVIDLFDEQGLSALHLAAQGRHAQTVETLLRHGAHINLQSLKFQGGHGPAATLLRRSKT

[7] = target: TRAF2 and NCK-interacting protein kinase (Homo sapiens) (UniProt Q9UKE5); assay: Inhibition of ZC2/TNIK Lys2 labeling site in human A-375 cells at 5 uM by KiNativ Profiling analysis relative to control; format: cell-based
[8] = target: Uncharacterized serine/threonine-protein kinase SBK3 (Homo sapiens) (UniProt P0C264); assay: Inhibition of SgK110 (unknown origin) at 10 uM by Ambit Kinomescan binding assay
[9] = target: Tyrosine-protein kinase ABL2 (Homo sapiens, UniProt P42684); assay: Inhibition of ABL2 (unknown origin) at 10 uM by Ambit Kinomescan binding assay relative to control; values are per cent of control
Tyrosine-protein kinase ABL2, sequence (P42684 whole entry): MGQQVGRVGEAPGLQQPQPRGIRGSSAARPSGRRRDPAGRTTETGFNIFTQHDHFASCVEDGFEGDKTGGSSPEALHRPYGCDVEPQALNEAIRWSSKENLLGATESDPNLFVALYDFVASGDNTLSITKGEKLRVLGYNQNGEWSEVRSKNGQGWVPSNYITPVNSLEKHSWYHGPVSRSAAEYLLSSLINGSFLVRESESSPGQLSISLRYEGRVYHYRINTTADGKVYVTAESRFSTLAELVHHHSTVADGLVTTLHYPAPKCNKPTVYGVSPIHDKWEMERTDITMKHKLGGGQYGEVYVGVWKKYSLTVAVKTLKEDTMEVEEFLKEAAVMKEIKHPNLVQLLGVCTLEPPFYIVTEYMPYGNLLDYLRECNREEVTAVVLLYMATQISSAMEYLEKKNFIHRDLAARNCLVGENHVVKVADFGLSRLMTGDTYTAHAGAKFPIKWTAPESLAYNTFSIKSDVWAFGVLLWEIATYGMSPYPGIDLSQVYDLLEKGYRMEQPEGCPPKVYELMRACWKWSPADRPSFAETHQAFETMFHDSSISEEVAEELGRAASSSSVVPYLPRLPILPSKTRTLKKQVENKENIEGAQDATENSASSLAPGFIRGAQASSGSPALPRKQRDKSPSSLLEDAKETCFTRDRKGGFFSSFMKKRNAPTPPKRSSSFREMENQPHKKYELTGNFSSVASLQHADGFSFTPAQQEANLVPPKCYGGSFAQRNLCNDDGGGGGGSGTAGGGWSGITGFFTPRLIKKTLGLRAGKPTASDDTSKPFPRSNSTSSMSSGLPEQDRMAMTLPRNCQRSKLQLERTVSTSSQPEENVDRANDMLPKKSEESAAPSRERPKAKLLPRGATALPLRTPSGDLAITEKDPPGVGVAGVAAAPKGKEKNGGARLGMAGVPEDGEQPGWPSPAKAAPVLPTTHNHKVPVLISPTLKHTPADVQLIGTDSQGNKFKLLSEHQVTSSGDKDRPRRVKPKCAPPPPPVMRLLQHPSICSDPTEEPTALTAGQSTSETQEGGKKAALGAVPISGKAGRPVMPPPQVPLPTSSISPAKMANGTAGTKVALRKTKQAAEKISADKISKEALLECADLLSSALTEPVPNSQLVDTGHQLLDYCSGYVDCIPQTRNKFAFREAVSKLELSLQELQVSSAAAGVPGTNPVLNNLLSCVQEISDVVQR

[10] = target: T2, Aurora kinase A (Homo sapiens) (UniProt O14965); assay: Inhibition of AurA K2 labeling site harbouring VIHRDIKPENLLLGSAGELK in human Huh-7 cells at 1 uM by KiNativ Profiling analysis relative to control; format: cell-based
T2 sequence (whole entry): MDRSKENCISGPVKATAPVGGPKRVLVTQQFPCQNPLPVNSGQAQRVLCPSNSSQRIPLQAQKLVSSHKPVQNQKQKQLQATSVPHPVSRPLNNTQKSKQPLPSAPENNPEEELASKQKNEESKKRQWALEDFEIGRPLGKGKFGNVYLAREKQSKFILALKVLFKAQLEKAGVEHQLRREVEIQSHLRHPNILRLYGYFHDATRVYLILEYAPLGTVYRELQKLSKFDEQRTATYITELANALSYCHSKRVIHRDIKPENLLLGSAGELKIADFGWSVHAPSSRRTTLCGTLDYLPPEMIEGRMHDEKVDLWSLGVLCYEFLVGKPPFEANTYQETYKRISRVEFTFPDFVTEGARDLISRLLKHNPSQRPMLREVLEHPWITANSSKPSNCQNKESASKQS

Ephrin type-A receptor 2 = Ephrin type-A receptor 2 (Homo sapiens, UniProt P29317); assay: Inhibition of EphA2 ACT labeling site in human A-375 cells at 5 uM by KiNativ Profiling analysis relative to control; format: cell-based
[11] = target: Rho-associated protein kinase 1 (Homo sapiens) (UniProt Q13464); assay: Inhibition of ROCK1 in human Huh-7 cells at 10 uM by KiNativ Profiling analysis relative to control; format: cell-based
[12] = target: 5'-AMP-activated protein kinase catalytic subunit alpha-1 (Homo sapiens) (UniProt Q13131); assay: Inhibition of AMPK-alpha1 (unknown origin) at 10 uM by Ambit Kinomescan binding assay relative to control
5'-AMP-activated protein kinase catalytic subunit alpha-1 (Homo sapiens), sequence (Q13131 whole entry, looked up): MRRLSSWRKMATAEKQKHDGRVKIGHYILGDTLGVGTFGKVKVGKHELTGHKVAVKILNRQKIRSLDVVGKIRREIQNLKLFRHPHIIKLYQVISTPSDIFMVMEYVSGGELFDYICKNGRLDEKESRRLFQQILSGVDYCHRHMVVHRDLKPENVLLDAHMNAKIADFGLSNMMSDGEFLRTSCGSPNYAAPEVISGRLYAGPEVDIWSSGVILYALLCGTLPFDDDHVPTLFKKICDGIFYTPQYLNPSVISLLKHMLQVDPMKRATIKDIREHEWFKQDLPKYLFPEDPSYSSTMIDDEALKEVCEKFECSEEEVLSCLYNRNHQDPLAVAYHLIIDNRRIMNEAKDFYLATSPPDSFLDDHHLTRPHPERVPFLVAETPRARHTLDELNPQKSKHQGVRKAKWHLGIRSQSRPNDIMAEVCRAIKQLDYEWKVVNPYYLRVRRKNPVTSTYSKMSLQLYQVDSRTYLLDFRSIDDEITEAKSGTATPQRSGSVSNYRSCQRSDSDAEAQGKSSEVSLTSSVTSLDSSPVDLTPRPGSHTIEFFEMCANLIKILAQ

[13] = tested on: Epidermal growth factor receptor (Homo sapiens), P00533 [UNDEFINED MUTATION]; assay: Inhibition of EGFR S752-I759del mutant (unknown origin) at 1 uM by Ambit Kinomescan binding assay relative to control
Epidermal growth factor receptor (Homo sapiens), P00533 [UNDEFINED MUTATION], sequence (P00533 whole entry, looked up, stated change not applied): as the sequence (P00533 whole entry) above

[14] = target: Phosphatidylinositol 4-kinase alpha (Homo sapiens) (UniProt P42356); assay: Inhibition of PI4KA ATP labeling site in human A-375 cells at 0.05 uM by KiNativ Profiling analysis relative to control; format: cell-based

CNc1cc(Oc2cc(C(=O)Nc3cc(N4CCN(C)CC4)cc(C(F)(F)F)c3)ccc2C)ncn1
inhibition [1]: -5% | inhibition [2]: 4.1% | inhibition [3]: -5%

CCN1CCN(Cc2ccc(NC(=O)c3ccc(C)c(Oc4ccnc5[nH]ccc45)c3)cc2C(F)(F)F)CC1
inhibition [4]: 0.7% | % of control [5]: 1.6% | inhibition [6]: inactive | inhibition [7]: 92.7% | inhibition [8]: inactive | % of control [9]: 0.6% | inhibition [10]: inactive | inhibition (Ephrin type-A receptor 2): 57.7% | inhibition [11]: 7.5% | inhibition [12]: 33%

CCN1CCN(Cc2ccc(NC(=O)c3ccc(C)c(/C=C/c4cnc5[nH]ccc5c4OC)c3)cc2C(F)(F)F)CC1
inhibition [13]: 1.4% | inhibition [14]: 0.8%
